This passage reports Water solubility, solubility and pKa results from patent US7790781B2 (priority 2005, dated 2010).

The structures appear in SMILES notation. Some results are limits rather than exact numbers.

A short description of series [1]: Water solubility of acidic compound at 20° C. From the text:
This object is achieved pursuant to the invention by a condensation-crosslinkable dental material having a composition containing at least one alkoxysilyl-functional and/or hydroxysilyl-functional polyether a), at least one catalyst b), and optionally water c), with the at least one catalyst b) being selected from the group consisting of bases, salts, and any combinations thereof.

Series [2] is described as follows: Polyether solubility of acidic compound (20° C.). The settings on record: organic solvent or mixture.
The nature of series [3]: pKa of acidic compound in water. An excerpt: If polyfunctional acids are used, it is sufficient for at least one of the pKa values, preferably the pKa1 of the polyfunctional acid used, to lie within the aforementioned ranges.

Consider `Cc1ccc(S(=O)(=O)O)cc1` [p-toluenesulfonic acid], for which, in series [1], the Water solubility result is on record as “about 750 g/l”.
Broadly, the solubility is the dissolved amount per volume that the medium holds. For orientation: pKa means the negative logarithm of the acid dissociation constant. Turning to `O=C1CC(=O)NC(=O)N1` [barbituric acid], the solubility in series [1] (20 °C, water) was 142 mg/mL; in series [2] it was not above 2 mg/mL. In series [3], this compound registered a pKa of 4.01.
